Test results reported in patent publication US6831199B1, “Pyrimidine compounds and derivatives thereof” (G. D. Searle & Co., priority 1995, dated 2004).
Where a name gives a salt, the structure may show the parent alone.

Key:
[1] = target: T1, Human vitronectin receptor (αvβ3) (Homo sapiens, UniProt P05106+P06756); test: Vitronectin adhesion assay (solid phase receptor assay, competition with biotinylated vitronectin); assay type: binding; details: read-out: AvB3 IC50
T1 construct: Human vitronectin receptor (αvβ3) was purified from human placenta; from tissue; host or cells: human placenta
Method in brief: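 Purified human αvβ3 coated overnight at 4 °C in TBS with 1.0 mM Ca++, Mg++, Mn++, pH 7.4; compounds (top final 1.0×10^−4 M) competed with 1 nM biotinylated vitronectin for 2 h at room temperature. Bound ligand detected by HRP anti-biotin/OPD at A450; values normalized to no-competitor controls, four-parameter curve fit.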

[2] = target: T2, Human fibrinogen receptor (αIIbβ3) (Homo sapiens, UniProt P05106+P08514); test: Purified IIb/IIIa receptor assay (solid phase receptor assay, competition with biotinylated vitronectin); assay type: binding; details: read-out: IIb/IIIa IC50
T2 construct: Human fibrinogen receptor (αIIbβ3) was purified from outdated platelets; from tissue; host or cells: outdated human platelets
Method in brief: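 Competition format: 1 nM biotinylated vitronectin plus test compound (highest 1.0×10^−4 M), 2 h at room temperature on wells coated with platelet-derived αIIbβ3. Buffer was TBS containing 1.0 mM Ca, Mg, Mn, pH 7.4. HRP anti-biotin readout at 450 nm; normalized to maximum binding, four-parameter curve fit.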

SMILES | IC50 [1] [nM] | IC50 [2] [nM]
CCC(CC(=O)O)NC(=O)CNC(=O)c1cccc(NC(=N)N)c1 (centres unmarked) [Example 264, 3-[[2-[[[3-[(aminoiminomethyl)amino]phenyl]carbonyl]amino]acetyl]amino]pentanoic acid, trifluoroacetate salt] | 2.18 | 574
N=C(N)Nc1cccc(C(=O)NCC(=O)NC(CC(=O)O)c2cc(Br)cc(Cl)c2O)c1 (stereo not drawn) [Example 265, β-[[2-[[[3-[(aminoiminomethyl)amino]phenyl]carbonyl]amino]acetyl]amino]-5-bromo-3-chloro-2-hydroxybenzenepropanoic acid, trifluoroacetate salt] | 6.19 | 706
O=C(O)CC(NC(=O)CNC(=O)c1cccc(NC(=O)NCc2ccncc2)c1)c1cccnc1 (stereo not drawn) [Example 266, β-[[2-[[[3-[[[(4-pyridinylmethyl)amino]carbonyl]amino]phenyl]carbonyl]amino]acetyl]amino]pyridine-3-propanoic acid, (bis)trifluoroacetate salt] | 0.77 | 1810
O=C(O)CC(NC(=O)CNC(=O)c1cccc(NC(=O)NCc2ccccn2)c1)c1cccnc1 (stereo not drawn) [Example 268, β[[2-[[[3-[[[(2-pyridinylmethyl)amino]carbonyl]amino]phenyl]carbonyl]amino]acetyl]amino]pyridine-3-propanoic acid, (bis)trifluoroacetate salt] | 0.67 | 7430
O=C(O)CC(NC(=O)CNC(=O)c1cccc(NC(=O)NCc2ccccc2)c1)c1cc(Cl)cc(Cl)c1 (stereo not drawn) [Example 269, 3,5-dichloro-β-[[2-[[[3-[[[(phenylmethyl)amino]carbonyl]amino]phenyl]carbonyl]amino]acetyl]amino]benzenepropanoic acid, monohydrate] | 209 | 25400
O=C(O)CC(NC(=O)CNC(=O)c1cccc(NC(=O)NCc2ccccc2)c1)c1cccc(Cl)c1 (stereo not drawn) [Example 270, 3-chloro-β-[[2-[[[3-[[[(phenylmethyl)amino]carbonyl]amino]phenyl]carbonyl]amino]acetyl]amino]benzenepropanoic acid, monohydrate] | 5.51 | 9160
CC(NC(=O)Nc1cccc(C(=O)NCC(=O)NC(CC(=O)O)c2cccnc2)c1)c1ccccc1 (stereo not drawn) [Example 271, β-[[2-[[[3-[[[(1-phenylethyl)amino]carbonyl]amino]phenyl]carbonyl]amino]acetyl]amino]pyridine-3-propanoic acid, trifluoroacetate salt] | 29.9 | 4610
O=C(O)CC(NC(=O)CNC(=O)c1cccc(NC(=O)NCc2nc3ccccc3[nH]2)c1)c1cc(Cl)cc(Cl)c1 (stereo not drawn) [Example 272, β-[[2-[[[3-[[[[(1H-benzimidazol-2-yl)methyl)amino]carbonyl]amino]phenyl]carbonyl]amino]acetyl]amino]-3,5-dichlorobenzenepropanoic acid, trifluoroacetate salt] | 893 | 8210
O=C(O)CC(NC(=O)CNC(=O)c1cccc(NC(=O)NCc2cc(Cl)cc(Cl)c2)c1)c1cccnc1 (stereo not drawn) [Example 273, β-[[2-[[[3-[[[[(3,5-dichlorophenyl)methyl]amino]carbonylamino]phenyl]carbonyl]amino]acetyl]amino]pyridine-3-propanoic acid, trifluoroacetate salt] | 12.9 | 4160
CC(CC(=O)O)NC(=O)CNC(=O)c1cccc(NC(=O)NCc2cc(Cl)cc(Cl)c2)c1 (centres unmarked) [Example 274, 3-[[2-[[[3-[[[[(3,5-dichlorophenyl)methyl]amino]carbonyl]amino]phenyl]carbonyl]amino]acetyl]amino]butanoic acid] | 31.1 | 21200
CC(C)Oc1cc(OC(C)C)cc(C(CC(=O)O)NC(=O)CNC(=O)c2cccc(NC(=N)N)c2)c1 (stereo not drawn) [Example 275, β-[[2-[[[3-[(aminoiminomethyl)amino]phenyl]carbonyl]amino]acetyl]amino]-3,5-bis(1-methylethoxy)benzenepropanoic acid, trifluoroacetate salt] | 6.98 | 1200

The next lines start with the values.

IC50 [1] [nM] | IC50 [2] [nM] | SMILES
1.25 | 111 | N=C(N)Nc1cccc(C(=O)NCC(=O)NC(CC(=O)O)c2cc(Br)c(O)c(Br)c2)c1 (stereo not drawn) [Example 276, β-[[2-[[[3-[(aminoiminomethyl)amino]phenyl)carbonyl]amino]acetyl]amino]-3,5-dibromo-4-hydroxybenzenepropanoic acid, trifluoroacetate salt]
1.41 | 198 | N=C(N)Nc1cccc(C(=O)NCC(=O)NC(CC(=O)O)c2cc(Cl)c(O)c(Cl)c2)c1 (stereo not drawn) [Example 277, β-[[2-[[[3-[(aminoiminomethyl)amino]phenyl]carbonyl]amino]acetyl]amino]-3,5-dichloro-4-hydroxybenzenepropanoic acid, trifluoroacetate salt]
0.45 | 150 | O=C(O)CC(NC(=O)CNC(=O)c1cccc(NC2=NCCCS2)c1)c1cccnc1 (stereo not drawn) [Example 278, β-[[2-[[[3-[(5,6-dihydro-4H-thiazin-2-yl)amino]phenyl]carbonyl]amino]acetyl]amino]pyridine-3-propanoic acid, bis(trifluoroacetate)salt]
7.12 | 637 | N=C(N)Nc1ccc(O)c(C(=O)NCC(=O)NC(CC(=O)O)c2cc(Cl)cc(Cl)c2)c1 (stereo not drawn) [Example 279, β-[[2-[[[5-[(aminoiminomethyl)amino]-2-hydroxyphenyl]carbonyl]amino]acetyl]amino]-3,5-dichlorobenzenepropanoic acid, trifluoroacetate salt]
4.16 | 11500 | O=C(O)CC(NC(=O)CNC(=O)c1cccc(NC(=O)NNc2ccccc2)c1)c1cccnc1 (stereo not drawn) [Example 281, β-[[2-[[[3-[[[(phenylamino)amino]carbonyl]amino]phenyl]carbonyl]amino]acetyl]amino]pyridine-3-propanoic acid, trifluoroacetate salt]
864 | 9770 | Nc1nnc(Nc2cccc(C(=O)NCC(=O)NC(CC(=O)O)c3cc(Cl)cc(Cl)c3)c2)[nH]1 (stereo not drawn) [Example 282, β-[[2-[[[3-[(5-amino-1,2,4-triazol-3-yl)amino]phenyl]carbonyl]amino]acetyl]amino]-3,5-dichlorobenzenepropanoic acid, trifluoroacetate salt]
195 | 18400 | O=C(O)CC(NC(=O)CNC(=O)c1cccc(Nc2cc(=O)[nH]c(=O)[nH]2)c1)c1cc(Cl)cc(Cl)c1 (stereo not drawn) [Example 284, 3,5-dichloro-β-[[2-[[[3-[[1,2,3,4-tetrahydro-2,4-dioxopyrimidin-6-yl)amino]phenyl]carbonyl]amino]acetyl]amino]benzenepropanoic acid]
229 | 3170 | N=C(Nc1cccc(C(=O)NCC(=O)NC(CC(=O)O)c2cc(Cl)cc(Cl)c2)c1)N1CCCCC1 (stereo not drawn) [Example 285, 3,5-dichloro-β-[[2-[[[3-[[imino(1-piperidinyl)methyl]amino]phenyl]carbonyl]amino]acetyl]amino]benzenepropanoic acid, trifluoroacetate salt]
413 | 8090 | O=C(O)CC(NC(=O)CNC(=O)c1cccc(Nc2nc3ccccc3o2)c1)c1cccnc1 (stereo not drawn) [Example 286, β-[[2-[[[3-[[benzoxazol-2-yl)amino]phenyl]carbonyl]amino]acetyl]amino]pyridine-3-propanoic acid, trifluoroacetate salt]
49.7 | 41.1 | O=C(O)CC(NC(=O)CNC(=O)c1cccc(Nc2ncc(-c3ccccc3)[nH]2)c1)c1cccnc1 (stereo not drawn) [Example 287, β-[[2-[[[3-[[5-phenyl-1H-imidazol-2-yl)amino]phenyl]carbonylamino]acetyl]amino]pyridine-3-propanoic acid, trifluoroacetate salt]
8.62 | 1060 | N=C(N)Nc1cccc(C(=O)NCC(=O)NC(CC(=O)O)CC(=O)Nc2cc(Cl)cc(Cl)c2)c1 (centres unmarked) [Example 288, 3-[[2-[[[3-[(aminoiminomethyl)amino]phenyl]carbonyl]amino]acetyl]amino)-5-[(3,5-dichlorophenyl)amino]-5-oxopentanoic acid, trifluoroacetate salt]
0.9 | 621 | N=C(N)Nc1cc(C(=O)O)cc(C(=O)NCC(=O)NC(CC(=O)O)c2cccnc2)c1 (stereo not drawn) [Example 289, β-[[2-[[[3-[(aminoiminomethyl)amino]-5-carboxyphenyl]carbonyl]amino]acetyl]amino]pyridine-3-propanoic acid, bis(trifluoroacetate)salt]
1.62 | 1020 | N=C(N)Nc1cc(C(=O)O)cc(C(=O)NCC(=O)NC(CC(=O)O)c2cc(Cl)cc(Cl)c2)c1 (stereo not drawn) [Example 290, β-[[2-[[[3-[(aminoiminomethyl)amino]-5-carboxyphenyl]carbonyl]amino]acetyl]amino]-3,5-dichlorobenzenepropanoic acid, trifluoroacetate salt]
1.24 | 37.4 | N=C(N)Nc1cc(NC(=N)N)cc(C(=O)NCC(=O)NC(CC(=O)O)c2cc(Cl)cc(Cl)c2)c1 (stereo not drawn) [Example 291, β-[[2-[[[3,5-bis[(aminoiminomethyl)amino]phenyl]carbonyl)amino]acetyl]amino]-3,5-dichlorobenzenepropanoic acid, bis(trifluoroacetate)salt]
